Reference: US9145351B2, “Azole derivatives, methods for producing the same, intermediate thereof, agro-horticultural agents” (KUREHA CORPORATION, priority 2009, dated 2015)

Columns and labels:
[1] = tested on: Penicillium sp.; test: Plate medium assay, industrial material deteriorating microorganism, Penicillium (Experimental Example 5); type: cell-based; settings: treatment at 50 mg/l, PDA plate medium, read-out: growth inhibition grade
Procedure: (§1) In this Experimental Example, the fungicidal effects of the inventive compounds on various phytopathogenic fungi for plants and hazardous microorganism for industrial materials were examined by the methods described below. Each inventive compound was dissolved in 2 ml of dimethyl sulfoxide. 0.6 ml of this solution was added to 60 nil of a PDA medium (potato dextrose agar medium) at about 60 degrees C., which was mixed thoroughly in a 100-ml conical flask, and poured into a dish, where it was solidified, thereby obtaining a plate medium containing the inventive compound at 50 mg/L and 5 mg/L. On the other hand, a subject microorganism previously cultured on a plate medium was cut out using a cork borer whose diameter was 4 mm, and inoculated to the test compound-containing plate medium described above. […] The growth degree of the microorganism on the test compound-containing plate medium thus observed was compared with the growth degree of the microorganism in the untreated group, and % mycelial growth inhibition was calculated by the following equation. R=100(dc-dt)/dc wherein R=% mycelial extension inhibition, dc=flora diameter in untreated plate, dt=flora diameter in treated plate. The results obtained as described above were evaluated as one of the 5 grades according to the following criteria.

[2] = tested on: Coriolus versicolor; test: Plate medium assay, wood denaturing microorganism Kawaratake (Experimental Example 5); type: cell-based; settings: Trametes versicolor; treatment at 50 mg/l, PDA plate medium; read-out: growth inhibition grade
Procedure: as §1

[3] = tested on: Puccinia recondita; test: Efficacy test against wheat brown rust, 100 mg/L and 10 mg/L (Experimental Example 2); type: in vivo; settings: nine to 14 days after inoculation; for efficacy compared with compound (1): 10 mg/L sprayed at 1,000 L/ha; for pest or weed control at 100 µg/mL: Puccinia recondita, 336 h, 100 mg/L sprayed at 1,000 L/ha, read-out: Protective value
Procedure: Onto a wheat plant (variety: NORIN No. 61) grown to the two-leaf phase using a square plastic pot (6 cm×6 cm), a wettable formulation such as Formulation Example 1 which was diluted and suspended in water at a certain concentration (100 mg/L and 10 mg/L) was sprayed at a rate of 1,000 L/ha. The sprayed leaves were air-dried, and inoculated with spore suspension of Puccinia recondita (adjusted at 200 spores/vision, […] was added at 60 ppm) by spraying, and kept at 25 degrees C. and a high humidity for 48 hours. Thereafter, the plant was kept in a greenhouse. Nine to 14 days after inoculation, the wheat brown rust lesion degree was investigated, and the protective value was calculated by the following equation. Protective value (%)=(1-lesion degree in sprayed plot/lesion degree in unsprayed plot)×100

[4] = tested on: Puccinia recondita; test: Efficacy test against wheat brown rust, 1 mg/L (Experimental Example 10); type: in vivo; settings: 1 g/ha (1 mg/L sprayed at 1,000 L/ha)
[5] = tested on: Septoria tritici; test: Assay for fungicidal effect on Septoria tritici, plate medium 1.25 mg/L (Experimental Example 9); type: cell-based; settings: for inhibition at 1.25 µg/mL: Zymoseptoria tritici, read-out: growth inhibition grade
Procedure: as §1, with “Each” for “In this Experimental Example, the fungicidal effects of the inventive compounds on various phytopathogenic fungi for plants and hazardous microorganism for industrial materials were examined by the methods described below. Each”, “R=100(dc−dt)/dc” for “R=100(dc-dt)/dc”, “criteria. […] In this Experimental Example, the fungicidal effects of the inventive compounds on Septoria tritici were examined by the methods described in the Experimental Example 5. In this Experimental Example, the inventive compounds were diluted at 1.25 mg/L.” for “criteria.”

[6] = tested on: Botrytis cinerea; test: Efficacy test against cucumber gray mold (Experimental Example 1); type: in vivo; settings: 96 h, four days after inoculation, read-out: Protective value; for pest or weed control at 50 µg/mL: 50 mg/L sprayed at 1,000 L/ha; for pest or weed control at 100 µg/mL: 100 mg/L sprayed at 1,000 L/ha
Procedure: Onto a cucumber (variety:SHARP1) plant in its cotyledon phase grown using a square plastic pot (6 cm×6 cm), a wettable formulation such as Formulation Example 1 which was diluted and suspended in water at a certain concentrations (100 mg/L and 50 mg/L) was sprayed at a rate of 1,000 L/ha. The sprayed leaves were air-dried, and loaded with a paper disc (8 mm in diameter) soaked in a spore suspension of Botrytis cinerea, and kept at 20 degrees C. and a high humidity. Four days after inoculation, the cucumber gray mold lesion degree was investigated, and the protective value was calculated by the following equation. Protective value (%)=(1−mean lesion degree in sprayed plot/mean lesion degree in unsprayed plot)×100

[7] = tested on: Aureobasidium sp.; test: Plate medium assay, industrial material deteriorating microorganism, Aureobasidium (Experimental Example 5); type: cell-based; settings: treatment at 50 mg/l, PDA plate medium, read-out: growth inhibition grade
Procedure: as §1

[8] = tested on: Trichoderma sp.; test: Plate medium assay, industrial material deteriorating microorganism, Trichoderma (Experimental Example 5); type: cell-based; settings: treatment at 50 mg/l, PDA plate medium, read-out: growth inhibition grade
Procedure: as §1

[9] = tested on: Aspergillus sp.; test: Plate medium assay, industrial material deteriorating microorganism, Aspergillus (Experimental Example 5); type: cell-based; settings: treatment at 50 mg/l, PDA plate medium, read-out: growth inhibition grade
Procedure: as §1

[10] = tested on: Mucor sp.; test: Plate medium assay, industrial material deteriorating microorganism, Mucor (Experimental Example 5); type: cell-based; settings: treatment at 50 mg/l, PDA plate medium, read-out: growth inhibition grade
Procedure: as §1

[11] = tested on: Cladosporium sp.; test: Plate medium assay, industrial material deteriorating microorganism, Cladosporium (Experimental Example 5); type: cell-based; settings: treatment at 50 mg/l, PDA plate medium, read-out: growth inhibition grade
Procedure: as §1

[12] = tested on: Septoria tritici; test: Microplate test of biocidal effect on wheat Septoria blotch (Experimental Example 4); type: cell-based; settings: Zymoseptoria tritici, 240 h; % mycelium growth inhibition, absorbance 550 nm, 20 degrees C. for about 10 days; read-out: activity level (EC80)
Procedure: A spore suspension of wheat Septoria blotch (Septoria tritici) (spore concentration: 1×10^6 cells/ml) was prepared, and subjected to 100-fold dilution with a PD medium. A flat 96-well microplate was provided and 1 microliter of the test compound solution formed by dissolution in dimethyl sulfoxide (DMSO) at a concentration 100 times the test concentration was dispensed to the microplate, and then 100 microliter of the medium containing the spore was added and stirred thoroughly. […] R=100×(dc−dt)/dc: R: % mycelium growth inhibition dc: Absorbance of non-treatment zone dt: Absorbance of treatment zone

[13] = tested on: Septoria tritici; test: Assay for fungicidal effect on Septoria tritici, plate medium 0.02 mg/L (Experimental Example 7); type: cell-based; settings: Zymoseptoria tritici, read-out: grade (growth inhibition grade)
Source text: In this Experimental Example, the fungicidal effects of the inventive compounds on a phytopathogenic fungi, Septoria tritici were examined and compared to the Comparative Compound (3) described in Patent Literature 1 (JPA01-93574) by the methods described below. […] The subject microorganism previously cultured on a plate medium was cut out using a cork borer whose diameter was 4 mm, and inoculated to the test compound-containing plate medium described above. […] The growth degree of the microorganism on the test compound-containing plate medium thus observed was compared with the growth degree of the microorganism in the untreated group, and % mycelial growth inhibition was calculated by the following equation. R=100(dc−dt)/dc wherein R=% mycelial extension inhibition, dc=flora diameter in untreated plate, dt=flora diameter in treated plate. The results obtained as described above were evaluated as one of the 5 grades according to the following criteria. <Growth Inhibition Grade> […]

C[C@]1(CCl)CC[C@@H](Cc2ccc(Cl)cc2)[C@]1(O)Cn1cncn1 (racemic) [Compound I-1, (1RS,2SR,5SR)-5-(4-chlorobenzyl)-2-chloromethyl-2-methyl-1-(1H-1,2,4-triazol-1-ylmethyl)cyclopentanol]
inhibition at 50 µg/mL [1]: 60 to 80% | inhibition at 50 µg/mL [2]: 60 to 80% | efficacy compared with compound (1) [3]: higher efficacy than that of compound (1) | pest or weed control at 100 µg/mL [3]: ≥ 90% | lesion degree [4]: 0.5 (Less than 1%) | inhibition at 1.25 µg/mL [5]: > 80% | pest or weed control at 50 µg/mL [6]: ≥ 80% | pest or weed control at 100 µg/mL [6]: ≥ 80% | inhibition at 50 µg/mL [7]: 60 to 80% | inhibition at 50 µg/mL [8]: 60 to 80% | inhibition at 50 µg/mL [9]: 60 to 80% | inhibition at 50 µg/mL [10]: 60 to 80% | inhibition at 50 µg/mL [11]: 60 to 80% | EC80 [12]: ≤ 0.2 µg/mL

C[C@]1(CCl)CC[C@@H](Cc2ccc(F)cc2F)[C@]1(O)Cn1cncn1 (relative stereo) [Compound I-88]
efficacy compared with compound (1) [3]: higher efficacy than that of compound (1) | lesion degree [4]: 0.5 (Less than 1%) | growth inhibition grade [5]: 5 (% Mycerial growth inhibition of 80% or higher)

CC1(C)CCC(Cc2ccc(Cl)cc2)C1(O)Cn1ncnc1S (racemic) [compound (2)]
lesion degree [4]: 5 (50% or higher) | growth inhibition grade [5]: 1 (% Mycerial growth inhibition of less than 20%)

C[C@]1(CCl)CC[C@@H](Cc2ccc(F)cc2)[C@]1(O)Cn1cncn1 (racemic) [Compound I-77, (1RS,2SR,5SR)-2-chloromethyl-5-(4-fluorobenzyl)-2-methyl-1-(1H-1,2,4-triazol-1-ylmethyl)cyclopentanol]
inhibition at 50 µg/mL [1]: 60 to 80% | inhibition at 50 µg/mL [2]: 60 to 80% | efficacy compared with compound (1) [3]: higher efficacy than that of compound (1) | pest or weed control at 100 µg/mL [3]: ≥ 90% | lesion degree [4]: 0.5 (Less than 1%) | inhibition at 1.25 µg/mL [5]: > 80% | pest or weed control at 50 µg/mL [6]: ≥ 80% | pest or weed control at 100 µg/mL [6]: ≥ 80% | inhibition at 50 µg/mL [7]: 60 to 80% | inhibition at 0.02 µg/mL [13]: > 80% | inhibition at 50 µg/mL [8]: 60 to 80% | inhibition at 50 µg/mL [9]: 60 to 80% | inhibition at 50 µg/mL [10]: 60 to 80% | inhibition at 50 µg/mL [11]: 60 to 80% | EC80 [12]: ≤ 0.2 µg/mL

C[C@]1(CCl)CC[C@@H](Cc2ccccc2)[C@]1(O)Cn1cncn1 (racemic) [Compound I-73, (1RS,2SR,5SR)-2-chloromethyl-5-benzyl-2-methyl-1-(1H-1,2,4-triazol-1-ylmethyl)cyclopentanol]
inhibition at 50 µg/mL [1]: 60 to 80% | inhibition at 50 µg/mL [2]: 60 to 80% | efficacy compared with compound (1) [3]: higher efficacy than that of compound (1) | pest or weed control at 100 µg/mL [3]: ≥ 90% | lesion degree [4]: 0.5 (Less than 1%) | inhibition at 1.25 µg/mL [5]: > 80% | pest or weed control at 50 µg/mL [6]: ≥ 80% | pest or weed control at 100 µg/mL [6]: ≥ 80% | inhibition at 50 µg/mL [7]: 60 to 80% | inhibition at 0.02 µg/mL [13]: > 80% | inhibition at 50 µg/mL [8]: 60 to 80% | inhibition at 50 µg/mL [9]: 60 to 80% | inhibition at 50 µg/mL [10]: 60 to 80% | inhibition at 50 µg/mL [11]: 60 to 80% | EC80 [12]: ≤ 0.2 µg/mL

C[C@]1(CCl)CC[C@@H](Cc2cccc(Cl)c2)[C@]1(O)Cn1cncn1 (racemic) [Compound I-74, (1RS,2SR,5SR)-5-(3-chlorobenzyl)-2-chloromethyl-2-methyl-1-(1H-1,2,4-triazol-1-ylmethyl)cyclopentanol]
inhibition at 50 µg/mL [1]: 60 to 80% | inhibition at 50 µg/mL [2]: 60 to 80% | efficacy compared with compound (1) [3]: higher efficacy than that of compound (1) | pest or weed control at 100 µg/mL [3]: ≥ 90% | pest or weed control at 50 µg/mL [6]: ≥ 80% | pest or weed control at 100 µg/mL [6]: ≥ 80% | inhibition at 50 µg/mL [7]: 60 to 80% | inhibition at 50 µg/mL [8]: 60 to 80% | inhibition at 50 µg/mL [9]: 60 to 80% | inhibition at 50 µg/mL [10]: 60 to 80% | inhibition at 50 µg/mL [11]: 60 to 80% | EC80 [12]: ≤ 0.2 µg/mL

CC(Cl)=C[C@@]1(C)CC[C@@H](Cc2ccc(Cl)cc2)[C@]1(O)Cn1cncn1 (racemic) [Compound I-15, (1RS,2RS,5SR)-5-(4-chlorobenzyl)-2-(2-chloropropenyl)-2-methyl-1-(1H-1,2,4-triazol-1-ylmethyl)cyclopentanol]
inhibition at 50 µg/mL [1]: 60 to 80% | inhibition at 50 µg/mL [2]: 60 to 80% | efficacy compared with compound (1) [3]: higher efficacy than that of compound (1) | pest or weed control at 100 µg/mL [3]: ≥ 90% | pest or weed control at 50 µg/mL [6]: ≥ 80% | pest or weed control at 100 µg/mL [6]: ≥ 80% | inhibition at 50 µg/mL [7]: 60 to 80% | inhibition at 50 µg/mL [8]: 60 to 80% | inhibition at 50 µg/mL [9]: 60 to 80% | inhibition at 50 µg/mL [10]: 60 to 80% | inhibition at 50 µg/mL [11]: 60 to 80% | EC80 [12]: ≤ 0.2 µg/mL

C[C@]1(CBr)CC[C@@H](Cc2ccc(Cl)cc2)[C@]1(O)Cn1cncn1 (racemic) [Compound I-25, (1RS,2SR,5SR)-2-bromomethyl-5-(4-chlorobenzyl)-2-methyl-1-(1H-1,2,4-triazol-1-ylmethyl)cyclopentanol]
inhibition at 50 µg/mL [1]: 60 to 80% | inhibition at 50 µg/mL [2]: 60 to 80% | efficacy compared with compound (1) [3]: higher efficacy than that of compound (1) | pest or weed control at 100 µg/mL [3]: ≥ 90% | pest or weed control at 100 µg/mL [6]: ≥ 80% | inhibition at 50 µg/mL [7]: 60 to 80% | inhibition at 50 µg/mL [8]: 60 to 80% | inhibition at 50 µg/mL [9]: 60 to 80% | inhibition at 50 µg/mL [10]: 60 to 80% | inhibition at 50 µg/mL [11]: 60 to 80% | EC80 [12]: ≤ 0.2 µg/mL
